One series concerns the target T1, human GPR119 (Homo sapiens, UniProt Q8TDV5).
T1 construct: expressed in transfected cells; host or cells: HEK293 (transient transfection, Lipofectamine 2000)
T1 sequence (Q8TDV5 1-335): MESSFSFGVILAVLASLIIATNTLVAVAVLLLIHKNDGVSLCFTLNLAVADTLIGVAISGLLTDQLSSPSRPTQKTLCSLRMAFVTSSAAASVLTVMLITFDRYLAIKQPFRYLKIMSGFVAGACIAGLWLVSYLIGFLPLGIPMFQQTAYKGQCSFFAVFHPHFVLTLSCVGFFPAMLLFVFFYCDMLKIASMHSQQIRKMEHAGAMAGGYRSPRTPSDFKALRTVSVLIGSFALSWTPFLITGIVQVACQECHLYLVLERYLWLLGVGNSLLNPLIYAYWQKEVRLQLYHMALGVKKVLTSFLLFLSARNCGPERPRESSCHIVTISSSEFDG
In words: In vitro cyclic AMP assay (Cisbio HTRF) in HEK293 cells transfected with human GPR119. Type of series: cell-based. As to conditions: cAMP; for activation at 10 µM: 1 h, % Induction @ 10 μM; for pEC50: Emax varies between 65 to 80%. As to the method: A. In Vitro Cyclic AMP Assay:
cAMP measurements were done using a Cisbio dynamic 2 HTRF kit (Cisbio, Bedford, Mass.) according to the manufacturer's protocol. Briefly, HEK293 cells (0.2×10^6/well) were plated in a 24 well plate and incubated overnight at 37° C. Cells were transfected with either empty vector DNA or human GPR119 expression plasmid DNA using Lipofectamine 2000 (Invitrogen). After 24 h, transfected cells were harvested, counted and plated at 1000 cells/5 ul in a black 384 welled small volume plate. Cells were treated with desired concentrations of compounds and incubated for 60 min at room temperature. Lysis buffer containing cAMP-d2 and cryptate conjugate were added and incubated for 1 h. HRTF ratio was measured on a microplate reader (BMG Labtech., Germany) at an excitation wavelength of 337 nm and emission wavelengths of 665 and 620 nm with an integration time of 400 μsec. Data were analyzed using Graphpad Prism (Graphpad software; San Diego Calif.) for EC50 determination.
The results are as given in Table I as % Induction@ 10 μM, Table II as % Induction@ 10 μM and EC 50 in nM
On the technique in general: TR-FRET usually uses a lanthanide donor and a delayed reading to cut background.

The results in this text go back to patent US9181214B2 (RHIZEN PHARMACEUTICALS SA, priority 2011, dated 2015).

For orientation: pEC50 means the EC50 on a negative log10 scale, so that one unit is a factor of ten. Read a high pEC50 as a low EC50. In general, melting point refers to the temperature, or range, at which the solid turns liquid.

pEC50: −log10 of the molar value.

For the compound `CC(C)OC(=O)N1CCC(c2nc3ccc(-c4ccc(C(N)=O)c(F)c4)cc3o2)CC1` [EXAMPLE-44, Isopropyl 4-[6-(4-carbamoyl-3-fluorophenyl)benzo[d]oxazol-2-yl]piperidine-1-carboxylate], the melting point is 178 to 181 °C. On human GPR119 (Table I), this compound gave an activation at 10 µM of 64.8% and a pEC50 of 7.30 to 7.60.

Take `CC(C)CC(=O)N1CCC(c2nc3cc(-c4ccc(C(N)=O)c(F)c4)ccc3o2)CC1` [EXAMPLE-39, 2-Fluoro-4-{2-[1-(3-methylbutanoyl)piperidin-4-yl]benzo[d]oxazol-5-yl}benzamide]: the melting point was 186 to 190 °C. The compound also came in with an activation at 10 µM on human GPR119 (Table I) of 27.5%. At human GPR119 (Table II), `CCc1cnc(N2CCC(c3ccc4[nH]c(-c5ccc(S(C)(=O)=O)cc5F)nc4c3)CC2)nc1` [EXAMPLE-58, 5-[1-(5-ethylpyrimidin-2-yl)piperidin-4-yl]-2-[2-fluoro-4-(methylsulfonyl)phenyl]-1H-benzo[d]imidazole] showed an activation at 10 µM of 32.2%. On human GPR119 (Table I), `CC(C)(C)OC(=O)N1CCC(c2nc3cc(-c4ccc(-n5cnnn5)c(F)c4)ccc3o2)CC1` [EXAMPLE-15, Tert-butyl 4-{5-[3-fluoro-4-(1H-tetrazol-1-yl)phenyl]benzo[d]oxazol-2-yl}piperidine-1-carboxylate] gave an activation at 10 µM of 77.7% and a pEC50 of 6.30 to 7.00. Taken in the same sequence, the figures for `O=C(OC1CCC1)N1CCC(c2nc3cc(-c4ccc(-n5cnnn5)cc4F)ccc3o2)CC1` [EXAMPLE-23, Cyclobutyl 4-{5-[2-fluoro-4-(1H-tetrazol-1-yl)phenyl]benzo[d]oxazol-2-yl}piperidine-1-carboxylate] were 69.6% and 7.30 to 7.60. Regarding `CC(C)(C)OC(=O)N1CCC(c2ccc3oc(-c4ccc(C(F)(F)F)cc4)nc3c2)CC1` [EXAMPLE-70, Tert-butyl 4-{2-[4-(trifluoromethyl)phenyl]benzo[d]oxazol-5-yl}piperidine-1-carboxylate], at human GPR119 (Table II), the activation at 10 µM was 64.7% and the pEC50 is ≥ 7.60.

Consider `CC(C)OC(=O)N1CCC(c2nc3cc(-c4ccc(C(F)(F)F)cc4)ccc3o2)CC1` [EXAMPLE-27, Isopropyl 4-{5-[4-(trifluoromethyl)phenyl]benzo[d]oxazol-2-yl}piperidine-1-carboxylate], for which the activation at 10 µM on human GPR119 (Table I) is 46.5%. For `CC(C)(C)OC(=O)N1CCC(c2nc3ccc(-c4ccc(S(C)(=O)=O)cc4F)cc3o2)CC1` [EXAMPLE-6, Tert-butyl 4-{6-[2-fluoro-4-(methylsulfonyl)phenyl]benzo[d]oxazol-2-yl}piperidine-1-carboxylate], at human GPR119 (Table I), the activation at 10 µM came out at 73.2% and the pEC50 was 7.30 to 7.60.

As to `CC(C)OC(=O)N1CCC(c2nc3cc(-c4ccc(-n5cnnn5)cc4F)ccc3o2)CC1` [EXAMPLE-14, Isopropyl 4-{5-[2-fluoro-4-(1H-tetrazol-1-yl)phenyl]benzo[d]oxazol-2-yl}piperidine-1-carboxylate], at human GPR119 (Table I), the activation at 10 µM turned out to be 68.6% and the pEC50 is 7.30 to 7.60. In turn, `CC(C)OC(=O)N1CCC(c2nc3cc(-c4ccc(C(=O)O)cn4)ccc3o2)CC1` [EXAMPLE-34, 6-{2-[1-(isopropoxycarbonyl)piperidin-4-yl]benzo[d]oxazol-5-yl}nicotinic acid] registered a melting point of 239 to 242 °C. `CC(C)(C)OC(=O)N1CCC(c2ccc3oc(-c4ccc(S(C)(=O)=O)cc4F)nc3c2)CC1` [EXAMPLE-60, Tert-butyl 4-{2-[2-fluoro-4-(methylsulfonyl)phenyl]benzo[d]oxazol-5-yl}piperidine-1-carboxylate]: at human GPR119 (Table II), the activation at 10 µM was found to be 72.8% and the pEC50 was 7.30 to 7.60. On human GPR119 (Table I), `CCc1cnc(N2CCC(c3nc4cc(-c5ccc(-n6cnnn6)cc5F)ccc4o3)CC2)nc1` [EXAMPLE-16, 2-[1-(5-ethylpyrimidin-2-yl)piperidin-4-yl]-5-[2-fluoro-4-(1H-tetrazol-1-yl)phenyl]benzo[d]oxazole] had an activation at 10 µM of 43.7%. Turning to `Cc1ccc(-c2nc3ccc(C4CCN(C(=O)OC(C)C)CC4)cc3o2)cc1` [EXAMPLE-78, Isopropyl 4-(2-p-tolylbenzo[d]oxazol-6-yl)piperidine-1-carboxylate], the activation at 10 µM on human GPR119 (Table II) was determined as 59.4%. The compound `CC(C)(C)OC(=O)N1CCC(c2ccc3[nH]c(-c4ccc(S(C)(=O)=O)cc4F)nc3c2)CC1` [EXAMPLE-57, Tert-butyl 4-{2-[2-fluoro-4-(methylsulfonyl)phenyl]-1H-benzo[d]imidazol-5-yl}piperidine-1-carboxylate] registered an activation at 10 µM at human GPR119 (Table II) of 47%. On human GPR119 (Table II), `CS(=O)(=O)c1ccc(-c2nc3cc(C4CCN(C(=O)OCc5ccccc5)CC4)ccc3o2)c(F)c1` [EXAMPLE-74, Benzyl 4-{2-[2-fluoro-4-(methylsulfonyl)phenyl]benzo[d]oxazol-5-yl}piperidine-1-carboxylate] returned an activation at 10 µM of 14.7%. As for `CC(C)(C)OC(=O)N1CCC(c2nc3cc(-c4ccc(S(C)(=O)=O)cc4F)ccc3[nH]2)CC1` [EXAMPLE-2, Tert-butyl 4-{5-[2-fluoro-4-(methylsulfonyl)phenyl]-1H-benzo[d]imidazol-2-yl}piperidine-1-carboxylate], the activation at 10 µM on human GPR119 (Table I) came out at 35.8%. With `CC(C)COC(=O)N1CCC(c2ccc3oc(-c4ccc(S(C)(=O)=O)cc4F)nc3c2)CC1` [EXAMPLE-75, Isobutyl 4-{2-[2-fluoro-4-(methylsulfonyl)phenyl]benzo[d]oxazol-5-yl}piperidine-1-carboxylate], the activation at 10 µM on human GPR119 (Table II) worked out at 57.5%. Regarding `COCCN1CCC(c2nc3cc(-c4ccc(-n5cnnn5)cc4F)ccc3o2)CC1` [EXAMPLE-41, 5-[2-fluoro-4-(1H-tetrazol-1-yl)phenyl]-2-[1-(2-methoxyethyl)piperidin-4-yl]benzo[d]oxazole], the melting point lay in the range of 148 to 152 °C. On human GPR119 (Table I), `CC(C)OC(=O)N1CCC(c2nc3cc(-c4ccc(-n5cnnn5)c(F)c4)ccc3o2)CC1` [EXAMPLE-18, Isopropyl 4-{5-[3-fluoro-4-(1H-tetrazol-1-yl)phenyl]benzo[d]oxazol-2-yl}piperidine-1-carboxylate] returned an activation at 10 µM of 36.4%. For the compound `CCOC(=O)N1CCC(c2ccc3nc(-c4ccc(S(C)(=O)=O)cc4F)oc3c2)CC1` [EXAMPLE-72, Ethyl 4-{2-[2-fluoro-4-(methylsulfonyl)phenyl]benzo[d]oxazol-6-yl}piperidine-1-carboxylate], on human GPR119 (Table II), the activation at 10 µM amounted to 81.6% and the pEC50 was ≥ 7.60. With `CC(C)(C)OC(=O)N1CC=C(c2ccc3oc(-c4ccc(S(C)(=O)=O)cc4F)nc3c2)CC1` [EXAMPLE-59, Tert-butyl 4-{2-[2-fluoro-4-(methylsulfonyl)phenyl]benzo[d]oxazol-5-yl}-5,6-dihydropyridine-1(2H)-carboxylate], the activation at 10 µM on human GPR119 (Table II) worked out at 63.8%. Turning to `CCc1cnc(N2CCC(c3ccc4oc(-c5ccc(S(C)(=O)=O)cc5F)nc4c3)CC2)nc1` [EXAMPLE-62, 5-[1-(5-ethylpyrimidin-2-yl)piperidin-4-yl]-2-[2-fluoro-4-(methylsulfonyl)phenyl]benzo[d]oxazole], on human GPR119 (Table II), the activation at 10 µM was found to be 59.3% and the pEC50 is > 6.30. `CC(C)(C)OC(=O)N1CCC(c2cnc3oc(-c4ccc(C(F)(F)F)cc4)nc3c2)CC1` [EXAMPLE-87, Tert-butyl 4-{2-[4-(trifluoromethyl)phenyl]oxazolo[5,4-b]pyridin-6-yl}piperidine-1-carboxylate]: the activation at 10 µM on human GPR119 (Table II) came to 47.3%.

In the case of `CC(C)OC(=O)N1CCC(c2ccc3nc(-c4ccc(S(C)(=O)=O)cc4F)sc3c2)CC1` [EXAMPLE-76, Isopropyl 4-{2-[2-fluoro-4-(methylsulfonyl)phenyl]benzo[d]thiazol-6-yl}piperidine-1-carboxylate], at human GPR119 (Table II), the activation at 10 µM was 74.9% and the pEC50 was 6.60 to 7.30.

In the case of `CCC(CC)OC(=O)N1CCC(c2nc3cc(-c4ccc(-n5cnnn5)cc4F)ccc3o2)CC1` [EXAMPLE-25, Pentan-3-yl 4-{5-[2-fluoro-4-(1H-tetrazol-1-yl)phenyl]benzo[d]oxazol-2-yl}piperidine-1-carboxylate], the activation at 10 µM on human GPR119 (Table I) was 63.4%. At human GPR119 (Table II), `CS(=O)(=O)c1ccc(-c2nc3cc(C4=CCN(S(=O)(=O)CCCO)CC4)ccc3o2)c(F)c1` [EXAMPLE-79, 3-{4-[2-(2-fluoro-4-(methylsulfonyl)phenyl)benzo[d]oxazol-5-yl]-5,6-dihydropyridin-1(2H)-ylsulfonyl}propan-1-ol] displayed an activation at 10 µM of 46.2%. On human GPR119 (Table I), `CC(C)(C)OC(=O)N1CCC(c2nc3cc(-c4ccc(-c5nnn[nH]5)c(F)c4)ccc3o2)CC1` [EXAMPLE-19, Tert-butyl 4-{5-[3-fluoro-4-(1H-tetrazol-5-yl)phenyl]benzo[d]oxazol-2-yl}piperidine-1-carboxylate] returned an activation at 10 µM of 37.2%.
